Patent publication US20170367995A1, “TREATMENT OF EARLY STAGE PARKINSON'S DISEASE WITH A HYDROXYTYROSOL-CONTAINING POLYPHENOL FORMULATION” (Allevium Therapeutics, Inc., priority 2016, published 2017)

Legend:
[1] = tested on: subject diagnosed with Parkinson's disease; test: Case of a Parkinson's subject given Olivenol Plus capsules (Example 1); format: in vivo, human; settings: orally administered L-dopa for over three months before the polyphenol treatment, one subject
Procedure: The subject was given an olive polyphenol composition orally, in the form of two Olivenol Plus® capsules administered three times per day. As each capsule contains 12 mg olive polyphenols, including about 5 mg hydroxytyrosol, the daily dose given to the subject was 72 mg olive polyphenols, including 30 mg hydroxytyrosol.

[2] = tested on: cells from the mesencephalic region; test: Histology of cells from the mesencephalic region, rotenone mouse model; format: in vivo, male adult CD1 mice; settings: hydroxytyrosol-treated relative to rotenone-only ("vehicle") group
[3] = tested on: NF-κB; test: Western blot on the mesencephalic region: NF-κB; design: species or system male adult CD1 mice
Procedure: (§1) In vitro testing was then carried out on the mesencephalic region, with respect to iNOS production, IkB-α, NF-κB, Bax, and Bcl2. Western blot analyses and corresponding bar graphs are presented in FIG. 5 (iNOS production, optical density normalized to β-actin), FIG. 6 (IkB-α, also normalized to β-actin), FIG. 7 (NF-κB, optical density normalized to lamin A/C), FIG. 8 (Bax, normalized to β-actin), and FIG. 9 (Bcl2, normalized to β-actin). In each case, the effect of hydroxytyrosol is marked.

[4] = even at high concentrations; Auñon-Calles et al. (2013); cited from earlier work
[5] = tested on: IkB-α; test: Western blot on the mesencephalic region: IkB-α; design: species or system male adult CD1 mice
Procedure: as §1

[6] = tested on: endothelial cell; test: Endothelial cell based assay (pro-/anti-oxidant effect)
Text: Without wishing to be bound by theory, it may be postulated that the removal of hydroxytyrosol from its original matrix and natural environment can result in adverse effects, and that at least some of the naturally occurring associated polyphenols are necessary to include in a therapeutic hydroxytyrosol formulation.

[7] = tested on: iNOS production; test: Western blot on the mesencephalic region: iNOS; design: species or system male adult CD1 mice
Procedure: as §1

[8] = tested on: Bax; test: Western blot on the mesencephalic region: Bax; design: species or system male adult CD1 mice
Procedure: as §1

[9] = tested on: Bcl2; test: Western blot on the mesencephalic region: Bcl2; design: species or system male adult CD1 mice
Procedure: as §1

[10] = tested on: rotenone-induced PD state; test: Pole test (body coordination and balance) in rotenone mouse model of PD; format: in vivo, male adult CD1 mice; settings: hydroxytyrosol 10 mg/kg/day plus rotenone 5 mg/kg/day i.p., 28 days, relative to rotenone only

Row | Structure (SMILES) | improvement after treatment [1] | histologic injury score, FIG. 4 [2] | NF-κB, optical density normalized to lamin A/C, FIG. 7 [3] | toxicity [4] | IkB-α, normalized to β-actin, FIG. 6 [5] | pro-oxidant / anti-oxidant effect [6] | iNOS production, optical density normalized to β-actin, FIG. 5 [7] | Bax, normalized to β-actin, FIG. 8 [8] | Bcl2, normalized to β-actin, FIG. 9 [9] | pole test time to turn (orientation time), FIG. 1B [10] | pole test total time (orientation and complete descent), FIG. 1A [10]
1 | N[C@@H](Cc1ccc(O)c(O)c1)C(=O)O [L-dopa] | no noticeable improvement |  |  |  |  |  |  |  |  |  | 
2 | OCCc1ccc(O)c(O)c1 [hydroxytyrosol, 4-(hydroxyethyl)-1,2-benzene diol] |  | significantly reduces | marked | no toxicity has been detected | marked | pro-oxidant effect | marked | marked | marked | significantly lowers | significantly lowers
